The values below come from patent US20240207457A1, “CANCER-SPECIFIC POLYPEPTIDE AND USE THEREOF” (THE CATHOLIC UNIVERSITY OF KOREA INDUSTRY-ACADEMIC …, priority 2021, published 2024).

Where no end group is shown, it is not given here.

For one series, the system named is MKN45 xenograft model. The experiment in a line: Targeting ability in vivo of Cy5.5-binding peptide. Also noted: species or system mice. The conditions noted are these: FIGS. 6A and 6B. As to the method:
Through Examples 1 to 3, the gastric cancer-targeting ability of the peptide was confirmed at the cellular level. Accordingly, to confirm the targeting ability in vivo, a xenograft model was created using MKN45 in 5-week-old immunodeficient mice. Then, Cy5.5-binding peptide was injected at a concentration of 50 nM into the tail vein.

Series [1] relates to MKN45 cells. Nature of the series: Dark toxicity experiment without laser irradiation. It counts as cell-based. To be noted: for dark toxicity: 0 to 100 nM and 1 μM, FIGS. 8A and 8B. As to the method:
To analyze cytotoxicity through photodynamic therapy, MKN45 cells were treated with Ce6 and the Ce6-peptide at concentrations of 0, 1, 5, 10, 20, 50, 100 nM, […]

Series [2] concerns MKN45 cells. The experiment in a line: Photodynamic therapy cytotoxicity with laser irradiation. It is filed as cell-based. The conditions noted are these: laser 10 J, 500 mW, 3 cm, 2 minutes 35 seconds. As to the method:
To analyze cytotoxicity through photodynamic therapy, MKN45 cells were treated with Ce6 and the Ce6-peptide at concentrations of 0, 1, 5, 10, 20, 50, 100 nM, and 1 μM and then irradiated with a laser beam based on 10 J, 500 mW, and 3 cm for 2 minutes and 35 seconds.

Series [3] relates to MKN45 xenograft mouse model. Nature of the series: Ex vivo tumor-targeting analysis of extracted organs (IVIS). To be noted: organs extracted 4 hours after injection, 5 mg/kg. It is filed as in vivo, mice. The protocol:
To confirm the tumor-targeting ability of Ce6-peptide, an in vivo targeting experiment was performed on an MKN45 xenograft mouse model. Ce6 and the Ce6-peptide were injected at a concentration of 5 mg/kg into the tail vein of mice in which a tumor with a diameter of about 8 mm was developed. After 4 hours, the concentration of Ce6 in the tumor was confirmed using an in vivo imaging system (IVIS).
In addition, organs were extracted from each subject 4 hours after the injection to analyze tumor-targeting ability ex vivo using an IVIS.

In series [4] the test system is MKN45 xenograft mouse model. Nature of the series: Local tumor treatment efficacy through peptide and laser irradiation. To be noted: for body weight during the treatment period: laser 200 J. It is filed as in vivo, mice. The protocol: To confirm local tumor treatment efficacy using the peptide, an experiment was performed by dividing the mice in Example 6 into four groups: an untreated group, a group irradiated with a laser beam, a group irradiated with a laser beam after Ce6 administration, and a group irradiated with a laser beam after Ce6-peptide administration. Ce6 and the Ce6-peptide were administered at a concentration of 5 mg/kg into the tail vein. When 4 hours elapsed, the tumor area was irradiated with a laser beam for 9 minutes under conditions based on 200 J and 300 mW.

In series [5] the test system is AGS, MKN45, and MKN28, the gastric cancer cell lines (vs CCD841 normal colonic epithelial cell line). The experiment in a line: Immunochemical staining of FITC-bound phage and peptide (attachment ability). It is filed as cell-based. To be noted: bound to FITC, FIG. 2. An excerpt: (§1) To confirm the attachment abilities, phage No. 24 and the peptide were each independently bound to FITC to perform immunochemical staining.

The test system of series [6] is HEK293T kidney cells not containing the LGR5 receptor. The experiment in a line: Immunochemical staining of FITC-peptide in HEK293T cells. To be noted: bound to FITC, FIG. 3. It counts as cell-based.
Excerpt: as §1

In another series the test system is tumor tissue. The experiment in a line: Tumor tissue treated with FITC-bound target and negative control peptide. The conditions noted are these: peptides binding to FITC; FIG. 13. As to the method:
To confirm the tumor-targeting ability of the target peptide, the tumor tissue was treated with both the target peptide and a negative control peptide, not having the attachment ability to tumors, binding to FITC. The negative control peptide is a peptide made by randomly mixing the amino acid positions of the […] peptide sequence “QLMRPPV” (SEQ ID NO: 2).

Series [7] has as its system AGS, MKN45, and MKN28 gastric cancer cell lines and CCD841 normal cells. Nature of the series: Cellular uptake of Ce6-peptide. It counts as cell-based. The conditions noted are these: 10 uM; FIG. 7. The protocol:
(§2) To confirm the tumor-targeting and therapeutic efficacies of the peptide, photodynamic therapy using chlorin e6 (Ce6), a photosensitizer, was performed. First, to confirm the degree of cellular uptake of Ce6-peptide, AGS, MKN45, and MKN28, gastric cancer cell lines, and CCD841 cells, normal cells, were each independently treated with the Ce6-peptide at a concentration of 10 uM.

The test system of series [8] is MKN45 cells. The experiment in a line: ROS detection by DCF-DA staining. It counts as cell-based. To be noted: Ce6-peptide with laser irradiation, FIG. 9. The protocol:
To confirm whether cells were killed by photodynamic therapy, DCF-DA staining was performed to check whether cell death, the mechanism of the corresponding treatment, was caused by reactive oxygen species (ROS).

In series [9] the test system is MKN45 intraperitoneal metastasis model. Nature of the series: Peptide targeting ability in intraperitoneal metastasis model (IVIS). It counts as in vivo, Balb/c nude mice. The conditions noted are these: 5 mg/kg. The protocol: Through Example 6, the targeting ability in vivo of the peptide was confirmed in the xenograft model using MKN45, the gastric cancer cell line. Accordingly, to further verify the targeting ability in an intraperitoneal metastasis model, the same MKN45 cell line was injected intraperitoneally, and the targeting ability of the peptide was further verified.
Intraperitoneal metastasis was confirmed within two weeks by injecting 1×10^7 of the GFP-tagged MKN45 cell line into 5-week-old Balb/c nude mice. As a result, as shown in FIGS. 14A and 14B, additional infiltration of the cells into the liver, kidney, and spleen tissues and large tumors with a size of about 2 cm were observed.
To confirm the targeting ability of the peptide, modeled mice with intraperitoneal metastasis were treated with Ce6 and the Ce6-peptide at a concentration of 5 mg/kg and autopsied 4 hours after the treatment to confirm the concentration of the substance in the tissues using an IVIS.

The test system of series [10] is CCD841 cells and MKN45 cells. Nature of the series: Fluorescence density saturation of FITC-peptide. It is filed as cell-based. The conditions noted are these: FIG. 4. The protocol:
To confirm the maximum fluorescence absorption capacity of FITC-peptide, CCD841 cells and MKN45 cells were attached to each 8-well chamber. Then, the chamber was treated with the peptide at concentrations of 1, 10, 25, 50, 100, 200, 400, and 800 uM.

The test system of series [11] is MKN45 gastric cancer cells vs CCD841 normal cells. Nature of the series: FITC fluorescence density by flow cytometer. It is filed as cell-based. To be noted: 25, 50, and 100 µM for 1 hour, FIGS. 5A and 5B. The protocol:
In addition, after treating each of the CCD841 cells and the MKN45 cells with FITC-peptide at a concentration of 25, 50, and 100 µM for 1 hour, the FITC fluorescence density was measured using a flow cytometer.

Series [12] deals with T1, LGR5 protein on gastric cancer cell lines (AGS, MKN45, MKN28) (UniProt O75473 22-907, limits assumed).
T1 construct: whole, on cells; also called LGR5 receptor; gastric cancer cell lines containing LGR5
T1 sequence (looked up): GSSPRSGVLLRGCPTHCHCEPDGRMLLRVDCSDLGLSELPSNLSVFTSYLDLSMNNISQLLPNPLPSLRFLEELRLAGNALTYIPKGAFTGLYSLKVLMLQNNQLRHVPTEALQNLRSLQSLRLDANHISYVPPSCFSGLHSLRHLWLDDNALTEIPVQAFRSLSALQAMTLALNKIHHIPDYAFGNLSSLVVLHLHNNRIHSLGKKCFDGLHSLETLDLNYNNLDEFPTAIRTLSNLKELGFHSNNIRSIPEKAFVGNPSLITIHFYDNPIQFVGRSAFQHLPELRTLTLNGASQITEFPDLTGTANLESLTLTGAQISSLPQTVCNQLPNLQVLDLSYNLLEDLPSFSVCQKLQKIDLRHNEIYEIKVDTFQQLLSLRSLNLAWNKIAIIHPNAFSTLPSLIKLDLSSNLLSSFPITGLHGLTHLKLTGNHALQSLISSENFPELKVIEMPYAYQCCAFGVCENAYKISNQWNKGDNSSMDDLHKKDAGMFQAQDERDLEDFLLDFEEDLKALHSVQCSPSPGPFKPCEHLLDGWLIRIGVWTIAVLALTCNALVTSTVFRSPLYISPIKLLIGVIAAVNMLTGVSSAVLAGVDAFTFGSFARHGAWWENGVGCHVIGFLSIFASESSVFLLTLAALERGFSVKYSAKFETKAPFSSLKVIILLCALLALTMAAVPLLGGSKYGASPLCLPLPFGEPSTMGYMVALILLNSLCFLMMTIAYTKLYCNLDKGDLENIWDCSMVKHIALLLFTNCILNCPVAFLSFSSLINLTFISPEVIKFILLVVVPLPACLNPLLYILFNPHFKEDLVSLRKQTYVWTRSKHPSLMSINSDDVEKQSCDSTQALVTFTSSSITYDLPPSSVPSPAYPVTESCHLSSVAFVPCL
The experiment in a line: cell fluorescence after 10 uM Ce6-peptide on AGS, MKN45 and MKN28 versus CCD841 cells. As to the method: as §2

Where [13] appears, read: injected at 50 nM into the tail vein.
The mark [14] stands for this setting: 5 mg/kg tail vein, 300 mW, 9 minutes.

As for “Cy5.5-binding peptide: peptide of SEQ ID NO: 1 bound to Cy5.5, a fluorescent material (STCTRSR; also: bound to Cy5.5 (site not given here))”, in the series with MKN45 xenograft model, the “tumor-targeting ability compared with the control peptide group” value was “further better tumor-targeting ability”. For the same molecule, in the series with MKN45 xenograft model (setting [13]), the “fluorescence density in the tumor tissue” value is “significantly high fluorescence density” and the “fluorescence in other organs (heart, lung, liver, spleen, kidney)” value is on record as “poorly detected”.

chlorin e6 [Ce6, reference compound]: the dark toxicity result with MKN45 cells [1] is on record as “significant toxicity was not induced”. The “cell killing with laser irradiation” value in the series with MKN45 cells [2] was “cells were not killed”. Further, the “infiltration into the tumor compared with other organs (heart, lung, liver, spleen, kidney)” value in [3] (FIGS. 11A and 11B) is reported as “more infiltrated into the tumor than into other organs”. Besides, the “body weight during the treatment period” value in [4] (setting [14]) is reported as “No change in body weight was observed”.

STCTRSR (LGR5-targeting peptide): the “attachment ability, gastric cancer cell lines compared with CCD841” value in series [5] (AGS, MKN45, MKN28 vs CCD841 normal colonic epithelial cell line) is on record as “better”. Further, in [5] (MKN45), the “attachment ability in the MKN45 cell line” value is “significantly good”. In addition, the “attachment ability in HEK293T kidney cells” value in [6] is “not able to be confirmed”. In addition, in the series on tumor tissue, the “fluorescence based on FITC attachment to tumor tissue” value is given as “significantly high”.

For “Ce6-peptide: peptide of SEQ ID NO: 1 bound to chlorin e6 (Ce6), a photosensitizer (STCTRSR; also: bound to chlorin e6 (site not given here))”, in series [7], the “fluorescence density, gastric cancer cell lines compared with normal cell line” value was “higher”. In addition, in the series with MKN45 cells [1], the dark toxicity entry was “significant toxicity was not induced”. The same molecule returned a cells killed in the series with MKN45 cells [1] (1 μM) of 60%. Besides, the “concentration from which cells were rapidly killed” value in the series with MKN45 cells [2] is given as no less than 50 nM. In the series with MKN45 cells [8], the ROS detection entry was “detected in a concentration-dependent manner”. The “tumor-targeting ability ex vivo compared with Ce6 alone” value in [3] is given as “significantly better”. For the same molecule, the “body weight during the treatment period” value in series [4] (setting [14]) is given as “No change in body weight was observed”. Further, the “time after the treatment at which tumor necrosis was observed” value in series [4] (5 mg/kg tail vein, laser after 4 hours, 200 J, 300 mW, 9 minutes) was found to be 2 days. The “tumor size compared with the other groups” value in series [4] (on the 7th day, 5 mg/kg plus laser, FIGS. 12A and 12B) was “significantly reduced”. In series [9] (4 hours after the treatment), the “concentration in the kidney” value is “high concentration in the kidney”, the “excretion from the body compared with Ce6 alone” value is “more likely to be excreted from the body” and the “non-specific binding to other organs compared with Ce6 alone” value is recorded as “less likely to non-specifically bind to other organs”. The “tumor-targeting ability compared with Ce6 alone” value in series [9] (autopsied 4 hours after the treatment, FIGS. 15A and 15B) is given as “better”.

For `OO` [hydrogen peroxide, reference compound], in the series on MKN45 cells [8], the ROS detection result is given as “ROS was detected”.

As for “negative control peptide: peptide made by randomly mixing the amino acid positions of the non-specific binding peptide sequence QLMRPPV (SEQ ID NO: 2); bound to FITC (also: bound to FITC (site not given here)) [reference compound]”, the “fluorescence based on FITC attachment to tumor tissue” value in the series on tumor tissue is recorded as “not confirmed”.

With “FITC-peptide: peptide of SEQ ID NO: 1 bound to FITC, a fluorescent material (STCTRSR; also: bound to FITC (site not given here))”, in [10] (CCD841 and MKN45 cells), the “concentration from which fluorescence density was saturated in all cells” value is given as no less than 100 UM. In addition, the “concentration at which the difference in fluorescence density values between CCD841 and MKN45 cells was the largest” value in [10] (treated at 1 to 800 uM) was 25 UM. Further, the “FITC fluorescence density value, MKN45 compared with CCD841” value in series [11] was “increased in a concentration-dependent manner”.

B1: Ce6-peptide (STCTRSR peptide of SEQ ID NO: 1 bound to chlorin e6) (peptide)
peptide: STCTRSR
modifications: also: chlorin e6 bound to the peptide (site not given here)
notes: also called photosensitizer-peptide composite
As for B1, in series [12], the “fold difference in uptake (fluorescence density), gastric cancer cell lines versus normal CCD841 cells” value is no less than 11 times.
